Ends that are not written are not given here.
Experiments:
[1] = test system: recombinant human TACE (rhTACE); test: TACE-mediated cleavage of rhTNFR2:Fc model substrate (SDS-PAGE, silver staining, Western blot); assay type: biochemical; conditions: for inhibition of TACE-mediated cleavage of TNFR2:Fc: 80 μM peptide, silver staining
Excerpt: A model assay system was developed to assess the ability of N-TACE to inhibit TACE enzymatic activity. Recombinant human TACE (rhTACE), as well as the recombinant human TNFR1:Fc (rhTNFR1:Fc) and TNFR2:Fc (rhTNFR2:Fc) fusion proteins were purchased from R & D Systems (Minneapolis, Minn.). Both TNFR1:Fc and TNFR2:Fc are recombinant human chimeric proteins that encode the extracellular receptor domains, fused to a carboxy-terminal 6X-histidine-tagged Fc region of human IgG1 via a linker peptide (IEGRMD)(SEQ ID NO:1). Recombinant human TACE corresponds to the mature form following removal of the prodomain and has an apparent molecular weight of 70 kDa. N-TACE(18-54), which lacked the signal peptide, was synthesized by Sigma-Genosys (The Woodlands, Tex.). N-TACE truncation mutants were also synthesized; an amino-terminal mutant N-TACE(18-29) corresponded to N-TACE amino acids 18-29, a mid-domain mutant N-TACE(30-42) corresponded to N-TACE amino acids 30-42, a carboxy-terminal mutant N-TACE(43-54) corresponded to amino acids 43-54, and an extended mid-domain mutant N-TACE(30-48) corresponded to amino acids 30 to 48.
Chou Fasman analysis was performed using MacVector (Accelrys, Burlington, Mass.). Assays (50 μl) were performed in 50 mM Tris, 25 mM NaCl, pH 8.0 at 30° C. for 30 min. Samples were analyzed by SDS-PAGE using 4%-12% Bis-Tris Nupage gels (Invitrogen, Carlsbad, Calif.) and visualized with the SilverQuest Silver Staining Kit (Invitrogen, Carlsbad, Calif.). For Western blot analysis, samples were separated via SDS-PAGE, electroblotted onto nitrocellulose membranes, and incubated overnight (4° C.) with 200 ng/ml of a murine IgG1 monoclonal antibody directed against the histidine tag (Tetra-His, Qiagen, Valenica, Calif.). The antibody detected the carboxy-terminus of the recombinant human TNFR2:Fc fusion protein. A rabbit polyclonal antibody was also generated against N-TACE(18-54) (Sigma-Genosys, The Woodlands, Tex.) and was utilized for Western blotting at a 1:1000 dilution. Detection was by chemiluminescence using horseradish peroxidase-conjugated secondary antibodies.

[2] = test system: TNFR2 shedding from U937 cells; test: TNFR2 shedding from U937 cells (sandwich ELISA of soluble TNFR2 in supernatants); assay type: cell-based; conditions: 40 μM, 24 hours
Experimental: (§1) The ability of N-TACE to inhibit TNFR2 shedding was tested in a cell-based system. U937 cells were obtained from ATCC (Manassas, Va.) and maintained in RPMI-1640 medium with 10% fetal bovine serum. For experiments, U937 cells were plated into 6 well plates at a density of 2×10^6 cells/ml. PMA was purchased from Sigma (St. Louis, Mo.). Release of TNFR2 into […] cell culture supernatants over a 24-hour period was assayed utilizing a sandwich ELISA with a sensitivity of 7.8 pg/ml (R & D Systems). Cellular apoptosis and necrosis were measured using the TACS Annexin V-FITC Apoptosis Detection Kit (R & D Systems, Minneapolis, Minn.) and a XL-MCL Flow Cytometer (Becman-Coulter, Miami, Fla.). Statistical analysis was performed by a paired Student's t test with a Bonferroni correction for multiple comparisons and by single factor ANOVA. Differences were considered significant at a P value <0.05.
(§2) The U937 monocytic cells were treated for 24 hours with either N-TACE(18-54) (0.04 to 40 μM), or a peptide corresponding to N-TACE amino acids 18-29 (40 μM). […] In contrast, N-TACE(18-29) had no effect on TNFR2 shedding as compared to cells treated with media alone (186.5±1.8 vs. 184.6±2.2, n=6, P=NS).

[3] = test system: U937 cells; test: Cellular apoptosis and necrosis (Annexin V binding and propidium iodide uptake, flow cytometry); assay type: cell-based
Experimental: as §1, §2

[4] = 0.5 μM rhTACE, 0.95 μM TNFR2:Fc, 30 min

| Compound | inhibition of TACE-mediated cleavage of TNFR2:Fc [1, 4] | further results |
| --- | --- | --- |
| CC(C)C[C@H](CC(=O)NO)C(=O)N[C@H](C(=O)N[C@@H](C)C(=O)NCCN)C(C)(C)C [TAPI-2, reference compound] |  | inhibition of TACE-mediated TNFR2 cleavage ([1]; 25 μM, 0.5 μM rhTACE, 0.95 μM TNFR2:Fc, 30 min): completely inhibited |
| N-TACE(18-29): amino-terminal truncation mutant corresponding to N-TACE amino acids 18-29 (PRPPDDPGFGPH) | none of the N-TACE truncation mutants (80 μM) inhibited | effect on TNFR2 shedding ([2]; compared to media alone): no effect |
| N-TACE(30-42): mid-domain truncation mutant corresponding to N-TACE amino acids 30-42 (QRLEKLDSLLSDY) | none of the N-TACE truncation mutants (80 μM) inhibited |  |
| N-TACE(30-48): extended mid-domain mutant, 19-amino acid leucine-rich peptide, amino acids 30 to 48; QRLEKLDSLLSDYDILSLS (listed as Homo sapiens) | inhibited | inhibition of TNFR2 shedding ([2]; compared to cells treated with media alone): about 16% |
| N-TACE(43-54): carboxy-terminal truncation mutant corresponding to amino acids 43-54 (DILSLSNIQQHS) | none of the N-TACE truncation mutants (80 μM) inhibited |  |
| N-TACE: 54 amino acid protein: first 54 amino acids of TACE, signal peptide plus amino-terminus of prodomain, SEQ ID NO:3 (MRQSLLFLTSVVPFVLAPRPPDDPGFGPHQRLEKLDSLLSDYDILSLSNIQQHS; listed as Homo sapiens) |  | inhibition of TACE-mediated cleavage of TNFR2:Fc (summary statement) ([1]; concentration not given): shown to inhibit |
| PRPPDDPGFGPHQRLEKLDSLLSDYDILSLSNIQQHS [N-TACE(18-54)] |  | apoptosis or necrosis as cause of decreased TNFR2 shedding [3]: not a consequence of either apoptosis or necrosis |
| vasoactive intestinal peptide (HSDAVFTDNYTRLRKQMAVKKYLNSILN) [VIP, irrelevant peptide purchased from Bachem, specificity control, reference compound] | neither α-defensin or VIP inhibited |  |
